Data from ChEMBL document CHEMBL1201862, “PubChem BioAssay data set” (2004).
Activity calls are given as the source filed them.

What was measured:
[1] = target: Photoreceptor-specific nuclear receptor (Homo sapiens, UniProt Q9Y5X4); format: functional, cell-based;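 further: CHO-S cells with Gal4-NCOR and VP16-NR2E3 two-hybrid luciferase reporter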
[2] = target: T1, Corticotropin-releasing factor receptor 2/Corticotropin-releasing factor-binding protein (Homo sapiens, UniProt P24387+Q13324); assay: Dose Response confirmation of uHTS hits for small molecule antagonists of the CRF-binding protein and CRF-R2 receptor complex.; format: functional; conditions: read-out: IC50_Mean
T1 sequence (Q13324 whole entry): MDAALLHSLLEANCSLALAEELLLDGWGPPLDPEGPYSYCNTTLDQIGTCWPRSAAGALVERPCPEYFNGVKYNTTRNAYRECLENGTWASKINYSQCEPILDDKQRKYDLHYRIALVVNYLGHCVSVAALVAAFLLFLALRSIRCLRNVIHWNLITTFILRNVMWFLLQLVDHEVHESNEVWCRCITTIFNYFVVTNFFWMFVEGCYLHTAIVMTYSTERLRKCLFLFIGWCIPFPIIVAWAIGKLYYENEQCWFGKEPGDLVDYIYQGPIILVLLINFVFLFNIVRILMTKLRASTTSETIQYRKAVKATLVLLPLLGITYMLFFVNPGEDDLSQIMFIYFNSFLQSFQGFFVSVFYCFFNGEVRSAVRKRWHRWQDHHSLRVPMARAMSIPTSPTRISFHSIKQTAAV
T1 sequence (P24387 whole entry): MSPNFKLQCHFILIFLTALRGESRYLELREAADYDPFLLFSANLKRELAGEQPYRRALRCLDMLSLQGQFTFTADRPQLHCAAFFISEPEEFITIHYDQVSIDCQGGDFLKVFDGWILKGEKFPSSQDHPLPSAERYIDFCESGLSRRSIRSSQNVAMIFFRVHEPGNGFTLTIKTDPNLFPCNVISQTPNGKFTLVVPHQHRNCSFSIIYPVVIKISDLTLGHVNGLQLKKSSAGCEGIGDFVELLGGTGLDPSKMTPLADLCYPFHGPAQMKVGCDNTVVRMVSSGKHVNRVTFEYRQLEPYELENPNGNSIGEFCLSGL

[3] = target: T1, Corticotropin-releasing factor receptor 2/Corticotropin-releasing factor-binding protein; assay: activators of CRF receptor 2 with binding protein – uHTS hits, confirmation (AID 602473); format: functional; conditions: read-out: EC50_Mean
[4] = blockers of CRF-binding protein–CRF-R2 complex – cell-based, uHTS hits, 384-well, dose response (AID 651639); format: functional, Homo sapiens; conditions: read-out: IC50_Mean
[5] = nonselective StAR promoter luciferase inhibitors – cell-based, luminescence, luciferase reporter, counter-screen for LRH-1 inverse agonist project, dose response (AID 651969); format: functional
[6] = target: Nuclear receptor subfamily 5 group A member 2 (Homo sapiens, UniProt O00482); format: functional, cell-based;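 further: HEK293T cells transfected with LRH-1 and a StAR promoter luciferase reporter; potency for inhibitors that lower LRH-1 driven reporter light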
Steroidogenic factor 1 = Steroidogenic factor 1 (Homo sapiens, UniProt Q13285); assay: Counterscreen for inverse agonists of the liver receptor homolog-1 (LRH-1; NR5A2): Luminescence-based cell-based high throughput dose response assay to identify inverse agonists of the Steroidogenic Factor 1 Nuclear Receptor (SF1; NR5A1).; format: functional
cells [7] = format: functional, cell-based
cells [8] = format: functional, cell-based; remark: listed apart in the source

Chain of Steroidogenic factor 1 (Q13285 whole entry): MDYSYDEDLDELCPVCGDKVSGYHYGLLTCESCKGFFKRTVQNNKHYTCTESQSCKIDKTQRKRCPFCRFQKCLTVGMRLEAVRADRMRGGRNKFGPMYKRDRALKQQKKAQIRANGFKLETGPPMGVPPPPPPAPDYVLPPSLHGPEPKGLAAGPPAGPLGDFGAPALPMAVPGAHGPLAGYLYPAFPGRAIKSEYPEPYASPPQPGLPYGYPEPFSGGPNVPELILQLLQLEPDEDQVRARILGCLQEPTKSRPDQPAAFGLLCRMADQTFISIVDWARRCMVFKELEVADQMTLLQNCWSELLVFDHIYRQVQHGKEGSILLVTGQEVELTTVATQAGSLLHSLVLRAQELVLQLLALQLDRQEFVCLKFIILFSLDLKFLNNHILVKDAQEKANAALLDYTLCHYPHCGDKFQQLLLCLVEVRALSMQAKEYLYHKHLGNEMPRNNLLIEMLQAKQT
Chain of Photoreceptor-specific nuclear receptor (Q9Y5X4 whole entry, the tested form may be a part): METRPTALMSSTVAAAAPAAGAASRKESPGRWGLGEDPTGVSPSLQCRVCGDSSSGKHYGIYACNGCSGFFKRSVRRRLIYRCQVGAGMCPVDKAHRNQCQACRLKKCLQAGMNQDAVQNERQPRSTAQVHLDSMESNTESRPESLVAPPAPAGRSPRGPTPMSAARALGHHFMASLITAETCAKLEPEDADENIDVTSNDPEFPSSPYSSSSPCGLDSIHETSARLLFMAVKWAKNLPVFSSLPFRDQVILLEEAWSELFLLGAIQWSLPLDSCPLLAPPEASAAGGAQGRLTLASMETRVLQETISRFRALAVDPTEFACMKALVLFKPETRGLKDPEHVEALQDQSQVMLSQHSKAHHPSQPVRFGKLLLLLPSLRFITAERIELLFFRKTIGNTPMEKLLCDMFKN
Chain of Nuclear receptor subfamily 5 group A member 2 (O00482 whole entry): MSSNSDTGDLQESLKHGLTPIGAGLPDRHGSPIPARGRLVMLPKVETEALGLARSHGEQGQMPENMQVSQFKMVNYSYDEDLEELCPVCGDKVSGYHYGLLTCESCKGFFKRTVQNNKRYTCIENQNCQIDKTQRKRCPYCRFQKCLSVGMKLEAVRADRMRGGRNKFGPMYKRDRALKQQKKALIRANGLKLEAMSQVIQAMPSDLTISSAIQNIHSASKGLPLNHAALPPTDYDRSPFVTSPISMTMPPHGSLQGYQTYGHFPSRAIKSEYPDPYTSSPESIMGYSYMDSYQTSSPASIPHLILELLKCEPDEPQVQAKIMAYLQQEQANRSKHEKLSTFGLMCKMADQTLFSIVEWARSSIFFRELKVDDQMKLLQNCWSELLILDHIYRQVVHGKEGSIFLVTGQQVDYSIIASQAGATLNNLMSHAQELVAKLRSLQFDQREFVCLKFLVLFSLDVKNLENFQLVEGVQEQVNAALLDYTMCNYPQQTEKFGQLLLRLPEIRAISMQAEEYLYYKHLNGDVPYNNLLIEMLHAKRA

Structure (SMILES) | IC50 [2] | EC50 [3] | IC50 [4] | IC50 [5] | further results
O=C(Nc1cccc(NC(=O)c2c(F)cccc2F)n1)c1c(F)cccc1F | – | – | – | – | IC50 [1]: 2.98 µM (active)
COc1ccc(NC(=O)CSc2sc3c(O)cc(O)nc3c2C#N)c(OC)c1 | – | – | – | 35.9 µM (inactive) | –
O=C(COC(=O)c1ccc(Br)cc1)Nc1ccccc1Br | – | – | – | 35.9 µM (inactive) | IC50 [6]: 35.9 µM (inactive); IC50 (Steroidogenic factor 1): 35.9 µM (inactive)
O=C(N[C@H](C(=O)N1CCC[C@H]1C(=O)NCCc1ccccc1Cl)C1CCCCC1)c1cccs1 | – | – | – | – | IC50 (cells [7]): > 29.9 µM (inactive); EC50 (cells [8]): > 29.9 µM (inactive)

Now from value to compound, other results behind:

IC50 [2] | EC50 [3] | IC50 [4] | Structure (SMILES) | IC50 [5] | further results
31.2 µM (active) | > 53 µM (inactive) | 3.74 µM (active) | Cc1cc(C)cc(Nc2c(F)c(F)c(F)c(F)c2C(=O)O)c1 | – | –
< 0.368 µM (active) | > 53 µM (inactive) | > 20 µM (inactive) | Cc1ccc(S(=O)(=O)N2c3ccccc3OCC2c2ccccc2)cc1 (stereo not drawn) | – | –
